“And” between values parts separate entries of the source, which are not always exact repeats. Equal entries are not always repeated. One block for each compound: values may come before it. The source made the active and inactive calls. No cut-off for these calls is given here.
What was measured:
Homo sapiens [1] = assay: Improvement in disease symptoms in GERD patient assessed as reduction in heartburns at 200 mg dosed daily; assay type: functional, organism-based
Homo sapiens [2] = assay: Improvement in disease symptoms in GERD patient assessed as reduction in regurgitation at 200 mg dosed daily; assay type: functional, organism-based
Homo sapiens [3] = assay: Improvement in disease symptoms in GERD patient assessed as reduction in cough at 200 mg dosed daily; assay type: functional, organism-based
Homo sapiens [4] = assay: Improvement in disease symptoms in GERD patient assessed as improvement in global disease scores at 200 mg dosed daily; assay type: functional, organism-based
Homo sapiens [5] = assay: Improvement in disease symptoms in GERD patient assessed as reduction in heartburns at 200 mg dosed daily co-treated with 10 mg anti-H1 drug loratadine dosed daily; assay type: functional, organism-based
Homo sapiens [6] = assay: Improvement in disease symptoms in GERD patient assessed as reduction in regurgitation at 200 mg dosed daily co-treated with 10 mg anti-H1 drug loratadine dosed daily; assay type: functional, organism-based
Homo sapiens [7] = assay: Improvement in disease symptoms in GERD patient assessed as reduction in cough at 200 mg dosed daily co-treated with 10 mg anti-H1 drug loratadine dosed daily; assay type: functional, organism-based
Homo sapiens [8] = assay: Improvement in disease symptoms in GERD patient assessed as improvement in global disease scores at 200 mg dosed daily co-treated with 10 mg anti-H1 drug loratadine dosed daily; assay type: functional, organism-based
Homo sapiens [9] = assay: Improvement in disease symptoms in GERD patient assessed as reduction in heartburns at 200 mg dosed daily co-treated with 10 mg anti-H1 drug loratadine dosed daily and 150 mg anti-H2 drug Ranitidine dosed daily; assay type: functional, organism-based
Homo sapiens [10] = assay: Improvement in disease symptoms in GERD patient assessed as reduction in regurgitation at 200 mg dosed daily co-treated with 10 mg anti-H1 drug loratadine dosed daily and 150 mg anti-H2 drug Ranitidine dosed daily; assay type: functional, organism-based
Homo sapiens [11] = assay: Improvement in disease symptoms in GERD patient assessed as reduction in cough at 200 mg dosed daily co-treated with 10 mg anti-H1 drug loratadine dosed daily and 150 mg anti-H2 drug Ranitidine dosed daily; assay type: functional, organism-based
Homo sapiens [12] = assay: Improvement in disease symptoms in GERD patient assessed as improvement in global disease scores at 200 mg dosed daily co-treated with 10 mg anti-H1 drug loratadine dosed daily and 150 mg anti-H2 drug Ranitidine dosed daily; assay type: functional, organism-based
Homo sapiens [13] = assay: Improvement in disease symptoms in GERD patient assessed as reduction in heartburns at 200 mg dosed daily co-treated with 150 mg anti-H2 drug Ranitidine dosed daily; assay type: functional, organism-based
Homo sapiens [14] = assay: Improvement in disease symptoms in GERD patient assessed as reduction in regurgitation at 200 mg dosed daily co-treated with 150 mg anti-H2 drug Ranitidine dosed daily; assay type: functional, organism-based
Homo sapiens [15] = assay: Improvement in disease symptoms in GERD patient assessed as reduction in cough at 200 mg dosed daily co-treated with 150 mg anti-H2 drug Ranitidine dosed daily; assay type: functional, organism-based
Homo sapiens [16] = assay: Improvement in disease symptoms in GERD patient assessed as improvement in global disease scores at 200 mg dosed daily co-treated 150 mg anti-H2 drug Ranitidine dosed daily; assay type: functional, organism-based
[17] = biological target: T1, Histidine decarboxylase (Homo sapiens) (UniProt P19113); assay: Inhibition of recombinant human HDC (1 to 512 residues) expressed in Escherichia coli BL21 (DE3) pLysS assessed as reduction in [14C]CO2 production from L-[U-14C]histidine at 10 uM relative to untreated control
T1 sequence (whole entry): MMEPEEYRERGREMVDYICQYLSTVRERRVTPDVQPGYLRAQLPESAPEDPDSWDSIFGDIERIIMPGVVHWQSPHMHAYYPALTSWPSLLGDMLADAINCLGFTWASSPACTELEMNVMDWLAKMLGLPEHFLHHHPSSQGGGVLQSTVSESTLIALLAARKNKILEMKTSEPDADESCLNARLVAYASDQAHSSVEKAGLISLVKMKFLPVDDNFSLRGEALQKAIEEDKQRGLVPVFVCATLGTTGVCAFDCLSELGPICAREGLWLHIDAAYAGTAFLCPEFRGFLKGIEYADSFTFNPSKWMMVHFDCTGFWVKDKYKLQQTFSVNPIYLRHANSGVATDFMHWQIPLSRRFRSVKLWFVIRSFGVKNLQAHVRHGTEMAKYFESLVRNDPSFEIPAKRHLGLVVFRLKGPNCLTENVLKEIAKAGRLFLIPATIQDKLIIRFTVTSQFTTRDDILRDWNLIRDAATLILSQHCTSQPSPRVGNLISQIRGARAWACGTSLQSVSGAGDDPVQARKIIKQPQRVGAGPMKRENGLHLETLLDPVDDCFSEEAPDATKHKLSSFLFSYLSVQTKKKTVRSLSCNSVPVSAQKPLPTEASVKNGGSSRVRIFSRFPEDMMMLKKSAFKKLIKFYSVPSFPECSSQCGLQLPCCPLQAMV

Homo sapiens [18] = assay: Prevention of food allergy in pediatric patient with history of anaphylaxis due to nut allergy assessed as reduction in allergic reactions at 200 mg dosed daily for 6 weeks co-administered with 10 mg Montelukast dosed daily; assay type: functional, organism-based
Homo sapiens [19] = assay: Prevention of food allergy in pediatric patient with history of anaphylaxis due to nut allergy assessed as reduction in allergic reactions at 200 mg dosed daily for 6 months co-administered with 10 mg Montelukast dosed daily; assay type: functional, organism-based
Homo sapiens [20] = assay: Prevention of food allergy in pediatric patient with history of anaphylaxis due to nut allergy assessed as reduction in stomach pain at 200 mg dosed daily for 6 months co-administered with 10 mg Montelukast dosed daily; assay type: functional, organism-based
Homo sapiens [21] = assay: Prevention of food allergy in pediatric patient with history of anaphylaxis due to nut allergy assessed as reduction in diarrhea at 200 mg dosed daily for 6 months co-administered with 10 mg Montelukast dosed daily; assay type: functional, organism-based
Homo sapiens [22] = assay: Prevention of food allergy in pediatric patient with history of anaphylaxis due to nut allergy assessed as reduction in constipation at 200 mg dosed daily for 6 months co-administered with 10 mg Montelukast dosed daily; assay type: functional, organism-based
Homo sapiens [23] = assay: Prevention of food allergy in pediatric patient with history of anaphylaxis due to nut allergy assessed as reduction in allergic symptoms at 200 mg dosed daily over 8 months co-administered with 10 mg Montelukast dosed daily; assay type: functional, organism-based
Homo sapiens [24] = assay: Prevention of food allergy in pediatric patient with history of anaphylaxis due to nut allergy assessed as reduction in digestive symptoms at 200 mg dosed daily over 8 months co-administered with 10 mg Montelukast dosed daily; assay type: functional, organism-based
Homo sapiens [25] = assay: Prevention of food allergy in patient with history of anaphylaxis due to ingestion of shrimps assessed as reduction in allergy symptoms at 200 mg dosed daily for 6 weeks co-administered with 10 mg Montelukast dosed daily; assay type: functional, organism-based
Homo sapiens [26] = assay: Prevention of food allergy in patient with history of anaphylaxis due to allergens assessed as reduction in allergy symptoms at 200 mg dosed daily for 6 to 8 weeks co-administered with 10 mg Montelukast dosed daily; assay type: functional, organism-based
Homo sapiens [27] = assay: Prevention of food allergy in patient with history of anaphylaxis due to allergens assessed as reduction in allergy symptoms to pea nut ingestion at 200 mg dosed daily for 8 months co-administered with 10 mg Montelukast dosed daily; assay type: functional, organism-based
Homo sapiens [28] = assay: Improvement in disease symptoms in GERD patient assessed as reduction in heartburns at 10 mg dosed daily; assay type: functional, organism-based
Homo sapiens [29] = assay: Improvement in disease symptoms in GERD patient assessed as reduction in regurgitation at 10 mg dosed daily; assay type: functional, organism-based
Homo sapiens [30] = assay: Improvement in disease symptoms in GERD patient assessed as reduction in cough at 10 mg dosed daily; assay type: functional, organism-based
Homo sapiens [31] = assay: Improvement in disease symptoms in GERD patient assessed as improvement in global disease scores at 10 mg dosed daily; assay type: functional, organism-based

- inhibition [17]: 36.5% and 27.9%
SMILES: CCOc1c(N)c2c(c(OCC)c1OCC)C(C1c3c(cc4c(c3OC)OCO4)CCN1C)OC2=O (stereo unspecified)
- Activity (Homo sapiens [1]): inactive
- Activity (Homo sapiens [2]): inactive
- Activity (Homo sapiens [3]): inactive
- Activity (Homo sapiens [4]): inactive
- Activity (Homo sapiens [5]): Active
- Activity (Homo sapiens [6]): Active
- Activity (Homo sapiens [7]): Active
- Activity (Homo sapiens [8]): Active
- Activity (Homo sapiens [9]): Active
- Activity (Homo sapiens [10]): Active
- Activity (Homo sapiens [11]): Active
- Activity (Homo sapiens [12]): Active
- Activity (Homo sapiens [13]): Active
- Activity (Homo sapiens [14]): Active
- Activity (Homo sapiens [15]): Active
- Activity (Homo sapiens [16]): Active
- Activity (Homo sapiens [18]): Active
- Activity (Homo sapiens [19]): Active
- Activity (Homo sapiens [20]): Active
- Activity (Homo sapiens [21]): Active
- Activity (Homo sapiens [22]): Active
- Activity (Homo sapiens [23]): Active
- Activity (Homo sapiens [24]): Active
- Activity (Homo sapiens [25]): Active
- Activity (Homo sapiens [26]): Active
- Activity (Homo sapiens [27]): Active

SMILES: CCOC(=O)N1CCC(=C2c3ccc(Cl)cc3CCc3cccnc32)CC1
- Activity (Homo sapiens [28]): inactive
- Activity (Homo sapiens [29]): inactive
- Activity (Homo sapiens [30]): inactive
- Activity (Homo sapiens [31]): inactive

Reference: ChEMBL document CHEMBL4476877, “Treatment of COPD, gastro-esophageal reflux disease (GERD), food allergies and other gastrointestinal conditions and disorders ameliorated by proper histamine management using a combination of histidine decarboxylase inhibitors, LRA drugs, anti-H1 and/or anti-H2 drugs” (2012)
